For twelve compounds, IC50 results are on record in ChEMBL document CHEMBL1166012, “New aryldithiolethione derivatives as potent histone deacetylase inhibitors” (Bioorg Med Chem, 2010).

The test system of one test is A549. Briefly: Antiproliferative activity against human A549 cells after 48 hrs. Conditions: A549, 48 h. It counts as functional, cell-based.
The target in another test is Histone deacetylase. Nature of the test: Inhibition of HDAC in human HeLa cells extracts after 60 mins by fluorescence assay. It is filed as cell-based.

A word on the IC50: it is the concentration that gives 50% inhibition. Low readings indicate greater potency in that assay, high ones weaker potency in that assay. `O=C(CCCCCCOc1ccc(-c2cc(=S)ss2)cc1)NO`: the IC50 with A549 was 6.1 µM; against Histone deacetylase, 0.01 µM.
On to `O=C(CCCCCCC(=O)Oc1ccc(-c2cc(=S)ss2)cc1)NO`, for which the IC50 in the test on A549 stood at 56 µM; on Histone deacetylase, 10 µM.
For the compound `O=C(CCCCCCOc1ccc(-c2cc(=S)ss2)cc1)Nc1ccccc1`, the IC50 in the test on A549 turned out to be 60.2 µM; at Histone deacetylase, 918.7 µM.
As to `O=C(CCCCOc1ccc(-c2cc(=S)ss2)cc1)Nc1ccccc1`, the IC50 in the test with A549 was above 1000 µM; against Histone deacetylase, 50 µM.
On to `O=C(CCCCCCC(=O)Oc1ccc(-c2cc(=S)ss2)cc1)Nc1ccccc1`, for which the IC50 was above 1000 µM in the test with A549 and 100 µM against Histone deacetylase.
For `O=C(O)c1ccc(-c2cssc2=S)cc1`, in that order: 103 µM and 100 µM.
Take `COc1cc(-c2cc(=S)ss2)ccc1OCC(=O)O`: the IC50 in the test on A549 worked out at 880 µM; against Histone deacetylase it was 82.85 µM.
In the case of `O=C(CCCCCCC(=O)Nc1ccccc1)NOC(=O)c1ccc(-c2cssc2=S)cc1`, the concentration for half-maximal inhibition (IC50) was determined as 1.68 µM with A549 and 1.19 µM on Histone deacetylase.
Regarding `O=C(CCCCCCC(=O)Nc1ccccc1)NOC(=O)c1csc(=S)s1`, the IC50 in the test on A549 was determined as 3.4 µM; at Histone deacetylase it was 0.25 µM.
In the case of `O=C(CCCCOc1ccc(-c2cc(=S)ss2)cc1)NO`, the half-inhibitory concentration (IC50) in the test with A549 was found to be 5.4 µM; at Histone deacetylase, 0.08 µM.
`Nc1ccccc1NC(=O)CCCCCCOc1ccc(-c2cc(=S)ss2)cc1`: the IC50 is 31.7 µM in the test on A549 and 32 µM at Histone deacetylase.
In the same order, the values of `O=C(O)c1csc(=S)s1` [ACS 5] are above 1000 µM and 46.4 µM.
